≈ marks a conversion by molar mass, not a printed value. Read-outs that look alike come from different tables or passages of the source.
Assays:
C. albicans cgmcc 2.2086 [1] = experiment: Propidium iodide influx, flow cytometry; type: cell-based, Candida albicans; settings: 1× MIC, 1 h at 28 °C; 10 μg/mL PI
Description: Cell membrane permeabilization after treatment with P19, melittin, fluconazole or amphotericin B were also detected via the propidium iodide influx assay. In brief, C. albicans cgmcc 2.2086 cells (1 × 10^4 cells/mL) were treated with antifungal agents for 1 h at 28 °C, then washed, harvested by centrifugation and resuspended in PBS. The cells were treated with 10 μg/mL propidium iodide and incubated for 30 min at room temperature. The uptake of propidium iodide into these cells was analyzed with a FACS flow cytometer (Becton–Dickinson, San Jose, CA) with a laser excitation wavelength of 488 nm. The flow cytometry results can be interpreted as follows. Region Q1 was identified as a living cell region; it represents cells treated with PBS. Q2 region represents the dead cell region. Ignored the surrounding adherent scattered points, the most concentrated scattered points represented the largest cell density. The areas where cells were concentrated represent the state of cells as live or die.

C.albicans cgmcc 2.2086 = experiment: microbe, parasite or virus in culture; type: cell-based, Candida albicans; settings: C.albicans cgmcc 2.2086
Description: The peptide antimicrobial activity was determined according to the Clinical and Laboratory Standards Institute method, with modifications. Bacteria concentration was measured by ultraviolet spectrophotometer, and fungi concentration was confirmed by McMillan’s turbidimetric method, which compared the fungi solution with the standard McFarland tube in front of the horizontal line on the paper with the naked eye. Because the light has different refract in different liquids. The standard solution is composed of sulfuric acid and barium chloride, which is equivalent to 1*10^8 CFU fungi. After cultivation, the growth of fungi and bacteria was measured by TECAN automatic enzyme label instrument. Briefly, bacterial cells were cultured in MHB until logarithmic phase, yeast colonies cultured in Yeast Peptone Dextrose Agar (YPDA) were picked and diluted in RPMI 1640 growth medium buffered with morpholine propane sulfonic acid (MOPS), and then 50 μL of bacterial or fungi cell solution (0.5–1 × 10^4 CFU/mL) was added to each well of sterile 96-well plates. Each well contained 50 μL of AMPs dissolved in BSA; the final concentrations of the peptides ranged from 0.5 to 128 μM. […] Broth with microbial cells and un-inoculated broth were used as positive control and negative controls, respectively.
The salt and acid sensitivities of the peptides were measured using with modified method to test MIC values; tested peptides were incubated in the presence of different final concentrations of physiological salts. The subsequent steps were consistent with the MIC determination protocol.

S. aureus 29213 = experiment: microbe, parasite or virus in culture; type: cell-based, Staphylococcus aureus; settings: MHB, 37 °C 24 h, peptides 0.5-128 μM, lowest concentration inhibiting 95% of growth, three independent experiments, read-out: MICs, S. aureus 29213
Description: (§1) The peptide antimicrobial activity was determined according to the Clinical and Laboratory Standards Institute method, with modifications. Bacteria concentration was measured by ultraviolet spectrophotometer, and fungi concentration was confirmed by McMillan’s turbidimetric method, which compared the fungi solution with the standard McFarland tube in front of the horizontal line on the paper with the naked eye. Because the light has different refract in different liquids. The standard solution is composed of sulfuric acid and barium chloride, which is equivalent to 1*10^8 CFU fungi. After cultivation, the growth of fungi and bacteria was measured by TECAN automatic enzyme label instrument. Briefly, bacterial cells were cultured in MHB until logarithmic phase, yeast colonies cultured in Yeast Peptone Dextrose Agar (YPDA) were picked and diluted in RPMI 1640 growth medium buffered with morpholine propane sulfonic acid (MOPS), and then 50 μL of bacterial or fungi cell solution (0.5–1 × 10^4 CFU/mL) was added to each well of sterile 96-well plates. Each well contained 50 μL of AMPs dissolved in BSA; the final concentrations of the peptides ranged from 0.5 to 128 μM. The lowest concentration of peptide with no microbial growth being observed were measured after incubation at 37 °C for 24 h for bacteria or at 28 °C for 48 h for fungi. Broth with microbial cells and un-inoculated broth were used as positive control and negative controls, respectively.

S. aureus 25923 = experiment: microbe, parasite or virus in culture; type: cell-based, Staphylococcus aureus; settings: MHB, 37 °C 24 h, peptides 0.5-128 μM, lowest concentration inhibiting 95% of growth, three independent experiments, read-out: MICs, S. aureus 25923
Description: as §1

C. albicans cgmcc 2.2086 [2] = experiment: Resistance development by sequential passaging at sub-MIC; type: cell-based, Candida albicans; settings: 20-passage repeating treatment at sub-lethal concentration
Description: Resistance development of C. albicans cgmcc 2.2086 against antifungals was explored using a sequential passaging method, described in our previous study [22]. Briefly, MIC testing was first conducted for P19, fluconazole and amphotericin B. After a 24 h incubation, fungal cells growing in a well with a half-MIC level were harvested and diluted to 0.5–1 × 10^4 CFU/mL using RPMI 1640 growth medium buffered with morpholine propane sulfonic acid (MOPS). The inoculum was subjected to subsequent passage MIC testing, and the process was repeated for 30 days. The fold change in MIC was plotted against the number of passages.

C. albicans cgmcc 2.2086 [3] = experiment: Cytoplasmic membrane depolarization assay (DiSC3-5); type: cell-based, Candida albicans; settings: agents at their MICs, 1 h; 0.4 μM DiSC3-5
Description: To analyze membrane disturbances due to P19, melittin, fluconazole or amphotericin B-treated, cells (1 × 10^4 cells/mL) of C. albicans cgmcc 2.2086 were incubated with antimicrobial agents at their respective MICs for 1 h at room temperature; the cells were then harvested by centrifugation and resuspended in 1 mL PBS (pH 7.4). […] Changes in fluorescence were measured from 0 to 800 s with a F-4500 fluorescence spectrophotometer (Hitachi, Japan) at an excitation wavelength of 622 nm and an emission wavelength of 670 nm.

E. coli UB1005 = experiment: microbe, parasite or virus in culture; type: cell-based, Escherichia coli; settings: Escherichia coli, UB1005; MHB, 37 °C 24 h, peptides 0.5-128 μM; lowest concentration inhibiting 95% of growth; three independent experiments; read-out: MICs, E. coli UB1005
Description: as §1

E. coli 25922 = experiment: microbe, parasite or virus in culture; type: cell-based, Escherichia coli; settings: Escherichia coli, 25922; MHB, 37 °C 24 h, peptides 0.5-128 μM; lowest concentration inhibiting 95% of growth; three independent experiments; read-out: MICs, E. coli 25922
Description: as §1

[4] = Candida albicans, CGMCC2, no added salt, read-out: MIC, Control
[5] = Candida albicans, CGMCC2, pH = 6 (acidic conditions), read-out: MIC in acid environment, pH = 6
[6] = Candida albicans, CGMCC2, physiological concentration of FeCl3, read-out: MIC in the presence of FeCl3
[7] = Candida albicans, CGMCC2, physiological concentration of KCl, read-out: MIC in the presence of KCl
[8] = Candida albicans, CGMCC2, physiological concentration of MgCl2, read-out: MIC in the presence of MgCl2
[9] = Candida albicans, CGMCC2, physiological concentration of NH4Cl, read-out: MIC in the presence of NH4Cl
[10] = Candida albicans, CGMCC2, physiological concentration of NaCl (Na+), read-out: MIC in the presence of NaCl
[11] = Candida albicans, CGMCC2, physiological concentration of ZnCl2, read-out: MIC in the presence of ZnCl2

SMILES	increase in MIC value compared with the first passage (C. albicans cgmcc 2.2086 [2]) [fold]	membrane depolarization (DiSC3-5 fluorescence intensity) (C. albicans cgmcc 2.2086 [3])	MIC (E. coli UB1005) [µM]	MIC (E. coli 25922) [µM]	MIC (C.albicans cgmcc 2.2086; [4]) [µM]	MIC (C.albicans cgmcc 2.2086; [5]) [µM]	MIC (C.albicans cgmcc 2.2086; [6]) [µM]	MIC (C.albicans cgmcc 2.2086; [7]) [µM]	MIC (C.albicans cgmcc 2.2086; [8]) [µM]	MIC (C.albicans cgmcc 2.2086; [9]) [µM]	MIC (C.albicans cgmcc 2.2086; [10]) [µM]	MIC (C.albicans cgmcc 2.2086; [11]) [µM]	MIC (S. aureus 29213; Staphylococcus aureus, 29213) [µM]	MIC (S. aureus 25923; Staphylococcus aureus, 25923) [µM]	also measured
CC[C@H](C)[C@H](NC(=O)CN)C(=O)NCC(=O)N[C@@H](C)C(=O)N[C@H](C(=O)N[C@@H](CC(C)C)C(=O)N[C@@H](CCCCN)C(=O)N[C@H](C(=O)N[C@@H](CC(C)C)C(=O)N[C@H](C(=O)N[C@H](C(=O)NCC(=O)N[C@@H](CC(C)C)C(=O)N1CCC[C@H]1C(=O)N[C@@H](C)C(=O)N[C@@H](CC(C)C)C(=O)N[C@H](C(=O)N[C@@H](CO)C(=O)N[C@@H](Cc1c[nH]c2ccccc12)C(=O)N[C@H](C(=O)N[C@@H](CCCCN)C(=O)N[C@@H](CCCNC(=N)N)C(=O)N[C@@H](CCCCN)C(=O)N[C@@H](CCCNC(=N)N)C(=O)N[C@@H](CCC(N)=O)C(=O)N[C@@H](CCC(N)=O)C(N)=O)[C@@H](C)CC)[C@@H](C)CC)[C@@H](C)O)[C@@H](C)O)C(C)C)C(C)C [Melittin, reference compound]	–	–	–	–	–	–	–	–	–	–	–	–	–	–	increase of PI fluorescent signal (C. albicans cgmcc 2.2086 [1]): more than 90%; MIC (C.albicans cgmcc 2.2086; no added salt, read-out: MIC, Control): 4 µM; MIC (C.albicans cgmcc 2.2086; pH = 6 (acidic conditions), read-out: MIC in acid environment, pH = 6): 4 µM (≈ 11.4 µg/mL); MIC (C.albicans cgmcc 2.2086; physiological concentration of FeCl3, read-out: MIC in the presence of FeCl3): 4 µM; MIC (C.albicans cgmcc 2.2086; physiological concentration of KCl, read-out: MIC in the presence of KCl): 4 µM; MIC (C.albicans cgmcc 2.2086; physiological concentration of MgCl2, read-out: MIC in the presence of MgCl2): 8 µM; MIC (C.albicans cgmcc 2.2086; physiological concentration of NaCl (Na+), read-out: MIC in the presence of NaCl): 8 µM; MIC (C.albicans cgmcc 2.2086; physiological concentration of ZnCl2, read-out: MIC in the presence of ZnCl2): 4 µM; MIC (S. aureus 29213): 2 µM (≈ 5.69 µg/mL); MIC (S. aureus 25923): 2 µM (≈ 5.69 µg/mL)
OC(Cn1cncn1)(Cn1cncn1)c1ccc(F)cc1F [Fluconazole, reference compound]	1024	minor change of membrane depolarization	> 128	> 128	1	1 (≈ 0.306 µg/mL)	1	1	1	1	2	1	> 128	> 128	–
C[C@@H]1[C@H](O)[C@@H](C)/C=C/C=C/C=C/C=C/C=C/C=C/C=C/[C@H](O[C@@H]2O[C@H](C)[C@@H](O)[C@H](N)[C@@H]2O)C[C@@H]2O[C@](O)(C[C@@H](O)C[C@@H](O)[C@H](O)CC[C@@H](O)C[C@@H](O)CC(=O)O[C@H]1C)C[C@H](O)[C@H]2C(=O)O [Amphotericin B, reference compound]	1024	minor change of membrane depolarization	> 128	> 128	1	1 (≈ 0.924 µg/mL)	1	1	1	1	2	1	> 128	> 128	–

Source: PMC8348200, “Selective Antifungal Activity and Fungal Biofilm Inhibition of Tryptophan Center Symmetrical Short Peptide” (International Journal of Molecular Sciences, 2021)
